PubChem BioAssay (NCI)
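A five-concentration, 48-hour dose response in 96-well plates underlies each endpoint, interpolated linearly between surrounding concentrations. Abbreviation: GI50, concentration required for 50% inhibition of growth. TGI: concentration producing complete growth inhibition.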

How the values were obtained:
Assay in all cases: NCI tumour cell line growth inhibition, 48 h
HT29 colon = tested on: HT29 colon
OVCAR-8 ovarian = tested on: OVCAR-8 ovarian
UACC-257 melanoma = tested on: UACC-257 melanoma
SF-295 CNS = tested on: SF-295 CNS
MOLT-4 leukemia = tested on: MOLT-4 leukemia
SF-539 CNS = tested on: SF-539 CNS
COLO 205 colon = tested on: COLO 205 colon
MALME-3M melanoma = tested on: MALME-3M melanoma
SK-MEL-2 melanoma = tested on: SK-MEL-2 melanoma
MDA-N = tested on: MDA-N
SW-620 colon = tested on: SW-620 colon
HOP-62 NSCLC = tested on: HOP-62 NSCLC
MDA-MB-435 = tested on: MDA-MB-435
T-47D breast = tested on: T-47D breast
SNB-75 CNS = tested on: SNB-75 CNS
A549 NSCLC = tested on: A549 NSCLC
NCI/ADR-RES ovarian = tested on: NCI/ADR-RES ovarian
K-562 leukemia = tested on: K-562 leukemia
HS 578T breast = tested on: HS 578T breast
U251 CNS = tested on: U251 CNS
IGROV1 ovarian = tested on: IGROV1 ovarian
ACHN renal = tested on: ACHN renal
LOX IMVI melanoma = tested on: LOX IMVI melanoma
RXF 393 renal = tested on: RXF 393 renal
HOP-92 NSCLC = tested on: HOP-92 NSCLC
EKVX NSCLC = tested on: EKVX NSCLC
HCT-116 colon = tested on: HCT-116 colon
786-0 renal = tested on: 786-0 renal
UO-31 renal = tested on: UO-31 renal
KM12 colon = tested on: KM12 colon
M14 melanoma = tested on: M14 melanoma
MDA-MB-231 breast = tested on: MDA-MB-231 breast
PC-3 prostate = tested on: PC-3 prostate
TK-10 renal = tested on: TK-10 renal
SK-OV-3 ovarian = tested on: SK-OV-3 ovarian
HCC-2998 colon = tested on: HCC-2998 colon
OVCAR-5 ovarian = tested on: OVCAR-5 ovarian
BT-549 breast = tested on: BT-549 breast
NCI-H23 lung = tested on: NCI-H23 lung
CAKI-1 renal = tested on: CAKI-1 renal
MCF7 breast = tested on: MCF7 breast
HL-60(TB) leukemia = tested on: HL-60(TB) leukemia
OVCAR-3 ovarian = tested on: OVCAR-3 ovarian
CCRF-CEM leukemia = tested on: CCRF-CEM leukemia
HCT-15 colon = tested on: HCT-15 colon
DU-145 prostate = tested on: DU-145 prostate
UACC-62 melanoma = tested on: UACC-62 melanoma
NCI-H522 lung = tested on: NCI-H522 lung
SNB-19 CNS = tested on: SNB-19 CNS
SR leukemia = tested on: SR leukemia
SF-268 CNS = tested on: SF-268 CNS
SK-MEL-5 melanoma = tested on: SK-MEL-5 melanoma
SN12C renal = tested on: SN12C renal
NCI-H226 lung = tested on: NCI-H226 lung
NCI-H460 lung = tested on: NCI-H460 lung
SK-MEL-28 melanoma = tested on: SK-MEL-28 melanoma
A498 renal = tested on: A498 renal
OVCAR-4 ovarian = tested on: OVCAR-4 ovarian

O=[N+]([O-])c1ccc(C=Cc2ccccc2)cc1.[C-]#[O+].[C-]#[O+].[C-]#[O+].[Cr]
GI50 (HT29 colon): 29.5 µM | TGI (HT29 colon): > 100 µM | GI50 (OVCAR-8 ovarian): 9.77 µM | TGI (OVCAR-8 ovarian): > 100 µM | GI50 (UACC-257 melanoma): 44.4 µM | TGI (UACC-257 melanoma): > 100 µM | GI50 (SF-295 CNS): 42.1 µM | TGI (SF-295 CNS): > 100 µM | GI50 (MOLT-4 leukemia): 5.13 µM | TGI (MOLT-4 leukemia): > 100 µM | GI50 (SF-539 CNS): > 100 µM | TGI (SF-539 CNS): > 100 µM | GI50 (COLO 205 colon): 23.9 µM | TGI (COLO 205 colon): > 100 µM | GI50 (MALME-3M melanoma): > 100 µM | TGI (MALME-3M melanoma): > 100 µM | GI50 (SK-MEL-2 melanoma): 57.7 µM | TGI (SK-MEL-2 melanoma): > 100 µM | GI50 (MDA-N): 7.25 µM | TGI (MDA-N): > 100 µM | GI50 (SW-620 colon): 79.5 µM | TGI (SW-620 colon): > 100 µM | GI50 (HOP-62 NSCLC): > 100 µM | TGI (HOP-62 NSCLC): > 100 µM | GI50 (MDA-MB-435): 4.81 µM | TGI (MDA-MB-435): > 100 µM | GI50 (T-47D breast): 4.19 µM | TGI (T-47D breast): > 100 µM | GI50 (SNB-75 CNS): 4.46 µM | TGI (SNB-75 CNS): 37.8 µM | GI50 (A549 NSCLC): 8.69 µM | TGI (A549 NSCLC): > 100 µM | GI50 (NCI/ADR-RES ovarian): 13.4 µM | TGI (NCI/ADR-RES ovarian): > 100 µM | GI50 (K-562 leukemia): 8.61 µM | TGI (K-562 leukemia): > 100 µM | GI50 (HS 578T breast): 62.9 µM | TGI (HS 578T breast): > 100 µM | GI50 (U251 CNS): 36.7 µM | TGI (U251 CNS): > 100 µM | GI50 (IGROV1 ovarian): 6.78 µM | TGI (IGROV1 ovarian): > 100 µM | GI50 (ACHN renal): 18.5 µM | TGI (ACHN renal): > 100 µM | GI50 (LOX IMVI melanoma): 31.3 µM | TGI (LOX IMVI melanoma): > 100 µM | GI50 (RXF 393 renal): 11.8 µM | TGI (RXF 393 renal): > 100 µM | GI50 (HOP-92 NSCLC): 4.94 µM | TGI (HOP-92 NSCLC): > 100 µM | GI50 (EKVX NSCLC): 2.93 µM | TGI (EKVX NSCLC): 30 µM | GI50 (HCT-116 colon): 14.8 µM | TGI (HCT-116 colon): > 100 µM | GI50 (786-0 renal): 3.41 µM | TGI (786-0 renal): > 100 µM | GI50 (UO-31 renal): 6.3 µM | TGI (UO-31 renal): > 100 µM | GI50 (KM12 colon): 13.7 µM | TGI (KM12 colon): > 100 µM | GI50 (M14 melanoma): 7.58 µM | TGI (M14 melanoma): > 100 µM | GI50 (MDA-MB-231 breast): 46.9 µM | TGI (MDA-MB-231 breast): > 100 µM | GI50 (PC-3 prostate): 43.3 µM | TGI (PC-3 prostate): > 100 µM | GI50 (TK-10 renal): 12 µM | TGI (TK-10 renal): > 100 µM | GI50 (SK-OV-3 ovarian): 22.9 µM | TGI (SK-OV-3 ovarian): > 100 µM | GI50 (HCC-2998 colon): > 100 µM | TGI (HCC-2998 colon): > 100 µM | GI50 (OVCAR-5 ovarian): > 100 µM | TGI (OVCAR-5 ovarian): > 100 µM | GI50 (BT-549 breast): 24.1 µM | TGI (BT-549 breast): > 100 µM | GI50 (NCI-H23 lung): 20.9 µM | TGI (NCI-H23 lung): > 100 µM | GI50 (CAKI-1 renal): 11.9 µM | TGI (CAKI-1 renal): > 100 µM | GI50 (MCF7 breast): 5.63 µM | TGI (MCF7 breast): > 100 µM | GI50 (HL-60(TB) leukemia): 5.2 µM | TGI (HL-60(TB) leukemia): > 100 µM | GI50 (OVCAR-3 ovarian): 21.2 µM | TGI (OVCAR-3 ovarian): > 100 µM | GI50 (CCRF-CEM leukemia): 2.72 µM | TGI (CCRF-CEM leukemia): > 100 µM | GI50 (HCT-15 colon): 43.4 µM | TGI (HCT-15 colon): > 100 µM | GI50 (DU-145 prostate): 24.3 µM | TGI (DU-145 prostate): > 100 µM | GI50 (UACC-62 melanoma): 3.01 µM | TGI (UACC-62 melanoma): 46.9 µM | GI50 (NCI-H522 lung): 3.85 µM | TGI (NCI-H522 lung): > 100 µM | GI50 (SNB-19 CNS): > 100 µM | TGI (SNB-19 CNS): > 100 µM | GI50 (SR leukemia): 2.49 µM | TGI (SR leukemia): > 100 µM | GI50 (SF-268 CNS): 32 µM | TGI (SF-268 CNS): > 100 µM | GI50 (SK-MEL-5 melanoma): 4.68 µM | TGI (SK-MEL-5 melanoma): 29.2 µM | GI50 (SN12C renal): 10.1 µM | TGI (SN12C renal): > 100 µM | GI50 (NCI-H226 lung): 27.8 µM | TGI (NCI-H226 lung): > 100 µM | GI50 (NCI-H460 lung): 3.37 µM | TGI (NCI-H460 lung): 89.7 µM | GI50 (SK-MEL-28 melanoma): > 100 µM | TGI (SK-MEL-28 melanoma): > 100 µM | GI50 (A498 renal): 7.53 µM | TGI (A498 renal): > 100 µM | GI50 (OVCAR-4 ovarian): 8.93 µM | TGI (OVCAR-4 ovarian): > 100 µM
